The values below come from patent US8946203B2, “Benzodioxane inhibitors of leukotriene production” (Boehringer Ingelheim International GmbH, priority 2012, dated 2015).

One assay concerns the target T1, human LTA4 hydrolase (Homo sapiens, UniProt P09960).
T1 sequence (P09960 1-611): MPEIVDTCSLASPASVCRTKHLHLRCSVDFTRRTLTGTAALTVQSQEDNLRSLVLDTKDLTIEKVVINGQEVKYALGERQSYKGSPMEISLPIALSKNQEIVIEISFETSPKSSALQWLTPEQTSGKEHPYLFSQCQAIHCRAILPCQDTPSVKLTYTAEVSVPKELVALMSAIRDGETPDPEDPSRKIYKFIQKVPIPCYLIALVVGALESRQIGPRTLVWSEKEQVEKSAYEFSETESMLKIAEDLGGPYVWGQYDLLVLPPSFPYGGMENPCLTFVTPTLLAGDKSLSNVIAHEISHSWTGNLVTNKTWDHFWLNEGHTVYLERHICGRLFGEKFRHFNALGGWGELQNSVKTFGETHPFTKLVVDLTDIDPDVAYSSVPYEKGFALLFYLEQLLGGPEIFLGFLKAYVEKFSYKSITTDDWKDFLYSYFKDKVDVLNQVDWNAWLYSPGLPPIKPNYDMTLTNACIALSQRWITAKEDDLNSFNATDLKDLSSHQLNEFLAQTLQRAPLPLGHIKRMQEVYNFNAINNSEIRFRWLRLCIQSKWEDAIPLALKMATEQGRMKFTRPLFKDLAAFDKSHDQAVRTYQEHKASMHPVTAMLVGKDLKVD
In words: LTA4H Enzyme assay (cleavage of Arg-AMC, fluorescence). It is filed as biochemical. Summed up:
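Aminomethylcoumarin release measured fluorimetrically (380/460 nm) after 1 h at room temperature. Reaction: 1 nM final enzyme, 50 μM final Arg-AMC and compound in Tris-HCl pH 7.5 with 100 mM KCl and 0.5% BSA.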

In assay [1] the test system is synthesis of LTB4 in human whole blood. In words: human whole blood (HWB) assay, LTB4 production inhibition after calcimycin stimulation. Format: cell-based. The conditions noted are these: heparinized human whole blood, calcimycin 20 μM, plasma LTB4 by HTRF. The method, then:
The compounds of the invention are additionally tested in a human whole blood (HWB) assay to determine their ability to inhibit the synthesis of LTB4 in a cellular system. Compounds are combined with heparinized human whole blood and incubated for 15 minutes at 37° C. Calcimycin (20 μM final, prepared in phosphate-buffered saline, pH 7.4) is then added and the mixture is incubated for another 30 minutes at 37° C. The samples are centrifuged for 5 min at low speed (1500×g) and the plasma layer is removed. Plasma LTB4 concentrations are then measured using an antibody-based homogenous time-resolved fluorescence method (CisBio, Bedford, Mass.). In general, the preferred potency range (IC50) of compounds in the HWB assay is between 10 nM to 10 μM, the more preferred potency range is 10 nM to 1 μM, and the most preferred potency range is 10 nM to 100 nM.

The mark [2] stands for this setting: LTA4H Enzyme 1 nM, Arg-AMC substrate 50 μM, room temperature 1 h, fluorescence, read-out: IC50 values of LTA4H Enzyme assay.

pIC50: −log10 of the molar value. Where two headings read alike, the source gives them in different places.

By pIC50 is commonly meant −log10 of the IC50, conventionally taken in molar units. Regarding `O=C(O)C1(c2ccccc2)CCN(Cc2ccc([C@H]3COc4cccnc4O3)cc2)CC1` [Example 294, 1-[(S)-4-(2,3-Dihydro-[1,4]dioxino[2,3-b]pyridin-3-yl)-benzyl]-4-phenyl-piperidine-4-carboxylic acid], the pIC50 is 8.24 against human LTA4 hydrolase and 5.89 in assay [1].

For `N#CCN1CCN(Cc2ccc([C@H]3COc4cccnc4O3)cc2)CC1` [Example 284, {4-[(S)-4-(2,3-Dihydro-[1,4]dioxino[2,3-b]pyridin-3-yl)-benzyl]-piperazin-1-yl}-acetonitrile], the negative-log IC50 (pIC50) at human LTA4 hydrolase (setting [2]) is 8.41; in assay [1], 6.54.

As for `c1cnc2c(c1)OC[C@H](c1ccc(CNC3CCC3)cc1)O2` [Example 173, N-{4-[(3S)-2,3-dihydro[1,4]dioxino[2,3-b]pyridin-3-yl]benzyl}cyclobutanamine], the figures for the pIC50 (on human LTA4 hydrolase (setting [2]); in assay [1]) were 9.14 and 7.14, respectively.

In the case of `CS(=O)(=O)N1CCC(NCc2ccc([C@H]3COc4ccccc4O3)cc2)CC1` [Example 174, N-{4-[(2S)-2,3-dihydro-1,4-benzodioxin-2-yl]benzyl}-1-(methylsulfonyl)piperidin-4-amine], the pIC50 was 9.22 on human LTA4 hydrolase (setting [2]) and 6.57 in assay [1].

In the case of `[O-][S+]1CCN(Cc2ccc([C@H]3COc4cccnc4O3)cc2)CC1` [Example 295, (S)-3-[4-(1-Oxo-1lambda4-thiomorpholin-4-ylmethyl)-phenyl]-2,3-dihydro-[1,4]dioxino[2,3-b]pyridine], the pIC50 at human LTA4 hydrolase (setting [2]) was 9.10; in assay [1], 6.92.

As to `O=S1(=O)CCCN(Cc2ccc([C@H]3COc4cccnc4O3)cc2)CC1` [Example 275, (S)-3-[4-(1,1-Dioxo-1lambda6-[1,4]thiazepan-4-ylmethyl)-phenyl]-2,3-dihydro-[1,4]dioxino[2,3-b]pyridine], the values for the pIC50 (on human LTA4 hydrolase (setting [2]); in assay [1]) were 9.15 and 6.77, respectively.

As for `O=C(O)CCC1CCN(Cc2ccc([C@H]3COc4ccccc4O3)cc2)CC1` [Example 134, 3-(1-{4-[(2S)-2,3-dihydro-1,4-benzodioxin-2-yl]benzyl}piperidin-4-yl)propionic acid], the figures for the negative-log IC50 (pIC50) (on human LTA4 hydrolase (setting [2]); in assay [1]) were 9.33 and 7.02, respectively.

As for `CC(=O)NCCC(=O)N1CCN(Cc2ccc([C@H]3COc4cccnc4O3)cc2)CC1` [Example 288, N-[3-[4-[[4-[(3S)-2,3-dihydro-[1,4]dioxino[2,3-b]pyridin-3-yl]phenyl]methyl]piperazin-1-yl]-3-oxo-propyl]acetamide], the pIC50 on human LTA4 hydrolase (setting [2]) is 9.06; in assay [1] it was 6.82.

Consider `COCC(=O)N1CCCN(Cc2ccc([C@H]3COc4cccnc4O3)cc2)CC1` [Example 257, 1-{4-[(S)-4-(2,3-Dihydro-[1,4]dioxino[2,3-b]pyridin-3-yl)-benzyl]-[1,4]diazepan-1-yl}-2-methoxy-ethanone], for which the results for the pIC50 (at human LTA4 hydrolase (setting [2]); in assay [1]) were 9.32 and 6.57, respectively.

On to `O=C(O)[C@H]1[C@@H]2CN(Cc3ccc([C@H]4COc5ccccc5O4)cc3)C[C@@H]21` [Example 267, [(1α,5α,6α)-3-[(S)-4-(2,3-Dihydro-benzo[1,4]dioxin-2-yl)-benzyl]-3-aza-bicyclo[3.1.0]hexane]-6-carboxylic acid], for which the negative-log IC50 (pIC50) was 9.52 at human LTA4 hydrolase (setting [2]) and 7.14 in assay [1].

As for `O=C1NCCCC12CCN(Cc1ccc([C@H]3COc4ccccc4O3)cc1)CC2` [Example 116, 9-{4-[(2S)-2,3-dihydro-1,4-benzodioxin-2-yl]benzyl}-2,9-diazaspiro[5.5]undecan-1-one], the pIC50 is 9.09 on human LTA4 hydrolase (setting [2]) and 6.51 in assay [1].

Take `CC(=O)N[C@H]1[C@@H]2CN(Cc3ccc([C@H]4COc5cccnc5O4)cc3)C[C@@H]21` [Example 250, N-{(1α,5α,6α)-3-[(S)-4-(2,3-Dihydro-[1,4]dioxino[2,3-b]pyridin-3-yl)-benzyl]-3-aza-bicyclo[3.1.0]hex-6-yl}-acetamide]: the pIC50 at human LTA4 hydrolase (setting [2]) was 9.25; in assay [1], 7.08.

With `CNC(=O)c1nnc2n1CCN(Cc1ccc([C@H]3COc4cccnc4O3)cc1)C2` [Example 242, 7-[(S)-4-(2,3-dihydro-[1,4]dioxino[2,3-b]pyridin-3-yl)-benzyl]-5,6,7,8-tetrahydro-[1,2,4]triazolo[4,3-a]pyrazine-3-carboxylic acid methylamide], the pIC50 on human LTA4 hydrolase (setting [2]) is 9.22; in assay [1], 6.77.

In the case of `CN(Cc1ccc([C@H]2COc3ccccc3O2)cc1)C(C)(C)C` [Example 81, N-{4-[(2S)-2,3-dihydro-1,4-benzodioxin-2-yl]benzyl}-N,2-dimethylpropan-2-amine], the values for the pIC50 (at human LTA4 hydrolase (setting [2]); in assay [1]) were 9.51 and 7.09, respectively.

With `CNC(=O)c1nnc2n1CCN(Cc1ccc([C@H]3COc4cccnc4O3)cc1)CC2` [Example 246, 6-[(S)-4-(2,3-Dihydro-[1,4]dioxino[2,3-b]pyridin-3-yl)-benzyl]-5,6,7,8-tetrahydro-4H-1,2,3a,6-tetraaza-azulene-3-carboxylic acid methylamide], the pIC50 at human LTA4 hydrolase (setting [2]) is 9.54; in assay [1], 7.04.

As to `NC(=O)NC1CCN(Cc2ccc([C@H]3COc4ccccc4O3)cc2)CC1` [Example 175, 1-(1-{4-[(2S)-2,3-dihydro-1,4-benzodioxin-2-yl]benzyl}piperidin-4-yl)urea], the figures for the pIC50 (at human LTA4 hydrolase (setting [2]); in assay [1]) were 9.66 and 7.14, respectively.

Regarding `c1cnc2c(c1)OC[C@H](c1ccc(CN3CCn4cnnc4C3)cc1)O2` [Example 156, (3S)-3-[4-(5,6-dihydro[1,2,4]triazolo[4,3-a]pyrazin-7(8H)-ylmethyl)phenyl]-2,3-dihydro[1,4]dioxino[2,3-b]pyridine], the pIC50 is 9.04 on human LTA4 hydrolase (setting [2]) and 6.80 in assay [1].

As for `O=C(CN1CCCC1=O)NC1CCN(Cc2ccc([C@H]3COc4cccnc4O3)cc2)CC1` [Example 289, N-[1-[[4-[(3S)-2,3-dihydro-[1,4]dioxino[2,3-b]pyridin-3-yl]phenyl]methyl]-4-piperidyl]-2-(2-oxopyrrolidin-1-yl)acetamide], the results for the pIC50 (on human LTA4 hydrolase (setting [2]); in assay [1]) were 9.40 and 6.77, respectively.

On to `CC(c1ccc([C@H]2COc3ccccc3O2)cc1)N1CCC(C(=O)O)CC1` (stereo partly drawn) [Example 227, 1-{1-[(S)-4-(2,3-dihydro-benzo[1,4]dioxin-2-yl)-phenyl]-ethyl}-piperidine-4-carboxylic acid], for which the pIC50 was 8.85 at human LTA4 hydrolase (setting [2]) and 6.51 in assay [1].

As to `O=C1NCCC12CCN(Cc1ccc([C@H]3COc4cccnc4O3)cc1)CC2` [Example 125, 8-[(S)-4-(2,3-Dihydro-[1,4]dioxino[2,3-b]pyridin-3-yl)-benzyl]-2,8-diaza-spiro[4.5]decan-1-one], the pIC50 at human LTA4 hydrolase (setting [2]) was 9.80; in assay [1] it was 7.41.

Turning to `CN(Cc1ccc([C@H]2COc3cccnc3O2)cc1)C1CCS(=O)(=O)C1` (stereo partly drawn) [Example 280, [(S)-4-(2,3-Dihydro-[1,4]dioxino[2,3-b]pyridin-3-yl)-benzyl]-(1,1-dioxo-tetrahydro-1lambda-6-thiophen-3-yl)-methyl-amine], the figures for the negative logarithm of the IC50 (pIC50) (at human LTA4 hydrolase (setting [2]); in assay [1]) were 8.62 and 6.64, respectively.

With `O=C(O)c1ccc(CC2CCN(Cc3ccc([C@H]4COc5cccnc5O4)cc3)CC2)cc1` [Example 234, 4-[(1-{4-[(3S)-2,3-dihydro[1,4]dioxino[2,3-b]pyridin-3-yl]benzyl}piperidin-4-yl)methyl]benzoic acid], the figures for the pIC50 (at human LTA4 hydrolase (setting [2]); in assay [1]) were 9.85 and 7.02, respectively.

As for `OC[C@H]1CCCC[C@H]1NCc1ccc([C@H]2COc3ccccc3O2)cc1` [Example 87, [(1S,2R)-2-({4-[(2S)-2,3-dihydro-1,4-benzodioxin-2-yl]benzyl}amino)cyclohexyl]methanol], the pIC50 on human LTA4 hydrolase (setting [2]) is 9.16; in assay [1], 6.57.

For `c1cncc(OC2CCN(Cc3ccc([C@H]4COc5cccnc5O4)cc3)CC2)c1` [Example 293, (S)-3-{4-[4-(Pyridin-3-yloxy)-piperidin-1-ylmethyl]-phenyl}-2,3-dihydro-[1,4]dioxino[2,3-b]pyridine], the negative logarithm of the IC50 (pIC50) on human LTA4 hydrolase (setting [2]) was 9.62; in assay [1], 7.28.

Turning to `CC1(O)CCN(Cc2ccc([C@H]3COc4cccnc4O3)cc2)CC1` [Example 276, 1-[(S)-4-(2,3-Dihydro-[1,4]dioxino[2,3-b]pyridin-3-yl)-benzyl]-4-methyl-piperidin-4-ol], the pIC50 is 8.92 at human LTA4 hydrolase (setting [2]) and 6.62 in assay [1].

For the molecule `O=C(O)c1ccc(C2CN(Cc3ccc([C@H]4COc5ccccc5O4)cc3)C2)cc1` [Example 254, 4-{1-[(S)-4-(2,3-Dihydro-benzo[1,4]dioxin-2-yl)-benzyl]-azetidin-3-yl}-benzoic acid], the pIC50 at human LTA4 hydrolase (setting [2]) is 9.62; in assay [1], 7.08.
